Test results taken from patent publication US6787519B2, “Methods of treating disorders related to apoE” (The Regents of the University of California, priority 2000, dated 2004).
Square brackets hold non-standard residues; d marks the D form. Peptide text beside a SMILES is read from it. * marks the point of attachment. Sta = CC(C)C[C@H](N)[C@@H](O)CC(=O)O; Isovaleryl = CC(C)CC(=O)*

Key:
apoE cleavage enzyme [1] = test: cleavage of apoE4 in the presence of known protease inhibitors, anti-apoE western blot; type: biochemical, mouse
Procedure: To test this hypothesis, purified human apoE3 or apoE4 were incubated with brain lysates of apoE knockout mice at 37° C. for 3 hours and the proteolysis of apoE was analyzed by anti-apoE western blot.
To determine the biochemical properties of the putative apoE cleavage enzyme, we tested the effects of different known inhibitors for four major categories of proteases, i.e., serine proteases, cysteine proteases, aspartate proteases, and metalloproteases.

Neuro-2a cells [2] = test: formation of intracellular inclusions / NFT-like structures in cells transfected with truncated apoE constructs; type: cell-based, mouse; conditions: constructs with deletion of 28 carboxyl-terminal amino acids
Procedure: (§1) Cell cultures—Murine neuroblastoma (Neuro-2a) cells were obtained from American Type Culture Collection (Rockville, Md.). Neuro-2a cells were maintained at 37° C. in a humidified 5% CO2 incubator in MEM-containing 10% FBS, supplemented with non-essential amino acids, penicillin, and streptomycin.
(§2) Transient transfection of cells—Neuro-2a, NT2-N, or cultured mouse primary neurons were transiently transfected with various apoE cDNA constructs, as listed in Table I, by using lipofectamine method. Briefly, 2 μg of apoE DNA were pre-incubated with 7 μl of lipofectamine in 200 μl of serum-free MEM containing N2-supplements at room temperature for 30 minutes. After addition of 800 μl of serum-free MEM containing N2-supplements, the mixture was added into the cells that had been washed three times with serum-free MEM. Ten to forty-eight hours later, the transfected cells were used for different experiments.
Immunocytochemistry—Neuro-2a cells were grown in 2-well chamber slides for 24 hours and were then transiently transfected with different apoE3 or apoE4 DNA constructs, as described above. […]
For the cells transiently transfected with GFP-apoE DNA constructs, after fixed in 3% paraformaldehyde and washed twice in PBS, the green fluorescence was viewed directly with a MRC-1024 laser scanning confocal system (Bio-Rad) as described above. […]

Neuro-2a cells [3] = test: incubation of cells with exogenous recombinant apoE4(Δ272-299) complexed with β-VLDL; type: cell-based, mouse; conditions: 30 hours incubation
Procedure: In human brains, apoE is synthesized and secreted primarily by astrocytes, although human neurons are capable of producing apoE. The secreted apoE can be internalized by neurons. To determine whether internalized apoE4(Δ272-299) can induce formation of NFT-like structures in neurons. Neuro-2a cells were incubated with recombinant apoE4(Δ272-299), which had been complexed with the lipid transport vehicle β-VLDL. After 30 hours incubation, neurite outgrowth and the formation of NFT-like structures in the cells were determined. […] These structures were identical to the tangle-like structures formed in Neuro-2a cells expressing GFP-apoE4(Δ272-299) in the cytosol. Therefore internalized apoE4(Δ272-299) can escape the endosomal-lysosomal pathway and interact with cytosolic p-tau and p-NF—H.

apoE cleavage enzyme [4] = test: chromogenic assay with Ala-Ala-Pro-Phe-p-nitroanilide as substrate; type: biochemical, mouse; conditions: 1 mM Ala-Ala-Pro-Phe-p-nitroanilide substrate
Procedure: To monitor the cleavage activity, a chromogenic group (p-nitroanilide) was added to the carboxyl-side of the last amino acid at the C-terminus. If the enzyme cuts the bond between the last amino acid and p-nitroanilide, the released p-nitroanilide will yield a yellow color, which can be monitored by a spectrophotometer at about 390-410 nm.
Importantly, a proline at the P2 position and two hydrophobic amino acids (such as alanine, Ala) at the P3 and P4 positions are critical for determining the efficiency of the cleavage. Taken together, the putative apoE cleavage enzyme is a chymotrypsin-like serine protease, which recognizes the motif of Ala-Ala-Pro-Phe (SEQ ID NO:1), Ala-Ala-Pro-Met (SEQ ID NO:2), Ala-Ala-Pro-Leu (SEQ ID NO:3), or a similar sequence in the substrate peptides or proteins. By using Ala-Ala-Pro-Phe-p-nitroanilide as a substrate, the chromogenic assay can be used as a high-throughput method to screen drugs, agents, or chemical compounds that inhibit apoE cleavage activity. Para-nitroanilide is detected spectrophotometrically at about 390-410 nm.
By using the chromogenic assay, in which 1 mM Ala-Ala-Pro-Phe-p-nitroanilide was used as the substrate, we screened many peptides towards the inhibition of the apoE cleavage enzyme activity.

apoE cleavage enzyme [5] = test: inhibition of apoE4 cleavage by partially purified apoE cleavage enzyme, anti-apoE western blot; type: biochemical, mouse; conditions: peptide 1 mM, 4 μg apoE4, 3 hours at 37° C.
Text: The peptides Ala-Ala-Pro-Phe (SEQ ID NO:1) and Ala-Ala-Pro-Leu (SEQ ID NO:3) were further tested for the inhibition of apoE cleavage. […] Thus, both Ala-Ala-Pro-Phe (SEQ ID NO:1) and Ala-Ala-Pro-Leu (SEQ ID NO:3) can be used as peptide inhibitors for the apoE cleavage enzyme.

[6] = tested on: Neuro2a cells expressing apoE3; test: formation of apoE and p-tau immunoreactive intracellular inclusions after Aβ or ER stress inducers; type: cell-based, mouse; conditions: untreated 0%; p<0.001
Procedure: as §1, §2
(§3) Immunocytochemistry—Neuro-2a cells were grown in 2-well chamber slides for 24 hours and were then transiently transfected with different apoE3 or apoE4 DNA constructs, as described above. After washing twice in PBS, the transfected cells were fixed with 3% paraformaldehyde in PBS for 30 minutes at room temperature, washed twice in PBS, and then permeabilized with Triton-X100 for 5 minutes which was followed by three washes in PBS.
(§4) To block nonspecific reactions, all slides were incubated for 1 hour at room temperature with PBS containing 2% BSA and 10% normal serum (Vector) derived from the same species as the source of secondary antibody (sheep or rabbit), followed by a 1-hour incubation with the primary antibody (monospecific rabbit anti-human apoE, 1:500; monoclonal anti-p-tau, 1:100-1:1000, anti-p-NF—H, 1:100-1:500) in PBS containing 2% BSA.
(§5) Slides were then washed three times in PBS containing 2% BSA and incubated for 1 hour at room temperature with the secondary antibody (FITC-coupled anti-rabbit IgG to detect antigen-bond anti-human apoE, Rodamine- or Cy5-coupled anti-mouse IgG to detect antigen-bond anti-p-tau or anti-p-NF—H). After three washes in PBS containing 2% BSA, immunofluorescently labeled slides were mounted in VectaShield (Vector) and viewed with a MRC-1024 laser scanning confocal system (Bio-Rad) mounted on an Optiphot-2 microscope (Nikon, Tokyo, Japan).
(§6) Since Aβ deposition is a major pathological component within the brains of Alzheimer's disease patients, we determined the effect of Aβ treatment on the formation of apoE and p-tau immunoreactive intracellular inclusions in Neuro2a cells expressing apoE.
(§7) Since Aβ treatment of cells can cause ER stress (TN98), other ER stress inducers, including Brefeldin A (BfA) and tunicamycin (TN98), were used to determine whether ER stress can increase the formation of intracellular inclusions in apoE transfected Neuro2a cells. Incubation with either BfA or tunicamycin increased the inclusion-positive cells from 2.7±1.2% to 7.2±2.1% (p<0.001) in apoE4 expressing cells and from 0% to 3.2±1.1% (p<0.001) in apoE3 expressing cells.

[7] = tested on: Neuro2a cells expressing apoE4; test: as above; type: cell-based, mouse; conditions: untreated 2.7±1.2%; p<0.001
Procedure: as §1, §2, §3, §4, §5, §6, §7

[8] = tested on: Neuro-2a cells expressing apoE3 or apoE4; test: generation of carboxyl-terminal truncated apoE in cells incubated with Aβ1-42, immunoprecipitation and anti-apoE western blotting; type: cell-based, mouse; conditions: more so with apoE4
Procedure: Immunoprecipitation and western blotting—Neuro-2a cells were grown to 80% confluence in 6-well plates or 15-cm dishes and were then transiently transfected with different apoE DNA constructs, as described above. Twenty-four to forty-eight hours later, the cells were harvested and lysed in ice-cold lysis buffer for 30 minutes. After spinning to remove nuclei (13,000 rpm for 15 minutes), apoE in supernatant was immunoprecipitated with monospecific rabbit anti-human apoE antibody and protein-A agarose beads. The immunoprecipitates were washed twice with lysis buffer and three times with PBS. The presence of apoE, p-tau, or p-NF—H in the immunoprecipitates was analyzed by western blotting using the corresponding antibodies. Alternatively, the supernatants of cell lysates were immunoprecipited with monoclonal anti-p-tau or anti-p-NF—H antibodies and, then, the presence of apoE was analyzed by anti-apoE western blotting.
Since Aβ1-42 increased formation of intracellular inclusions in Neuro2a cells expressing apoE4, we next determined whether treatment of the transfected cells with Aβ will increase generation of the carboxyl-terminal truncated form of apoE. Neuro-2a cells expressing apoE3 or apoE4 were incubated with Aβ1-42, then, intracellular apoE was immunoprecipitated and detected by anti-apoE western blotting. […]

[9] = 6 mM peptide, 20 hour incubation

## CC(C)C[C@H](NC(=O)[C@H]1O[C@@H]1C(=O)O)C(=O)NCCCCN=C(N)N [E-64]
apoE cleavage enzyme [1]
  inhibition of the cleavage of apoE4: did not inhibit

## apoE4 (Δ272-299): apoE4 with deletion of 28 carboxyl-terminal amino acids
Neuro-2a cells [2]
  transfected cells displaying the intracellular filamentous inclusions: 78±8%
Neuro-2a cells [3]
  neurite outgrowth: did not show neurite outgrowth
Neuro-2a cells [3]; anti-apoE immunofluorescent staining
  formation of NFT-like structures: NFT-like structures were formed

## CC(C)CC(=O)N[C@H](C(=O)N[C@H](C(=O)N[C@@H](CC(C)C)[C@@H](O)CC(=O)N[C@@H](C)C(=O)N[C@@H](CC(C)C)[C@@H](O)CC(=O)O)C(C)C)C(C)C [pepstain] (Isovaleryl-VV[Sta]A[Sta]-OH)
apoE cleavage enzyme [1]
  inhibition of the cleavage of apoE4: did not inhibit

## O=C(O)CN(CCOCCOCCN(CC(=O)O)CC(=O)O)CC(=O)O [EGTA]
apoE cleavage enzyme [1]
  inhibition of the cleavage of apoE4: did not inhibit

## O=S(=O)(F)Cc1ccccc1 [PMSF]
apoE cleavage enzyme [1]
  inhibition of the cleavage of apoE4: totally abolished

## Ala-Ala-Pro-Phe (AAPF; OTHER INFORMATION: synthetic peptide)
apoE cleavage enzyme [4]; [9]
  inhibition of apoE cleavage enzyme activity: 67%
apoE cleavage enzyme [5]
  inhibition of apoE cleavage: significant inhibition

## tunicamycin
[6]
  inclusion-positive apoE3 expressing cells after treatment: 3.2±1.1%
[7]
  inclusion-positive apoE4 expressing cells after treatment: 7.2±2.1%

## apoE4: human apolipoprotein E isoform apoE4, full-length
apoE cleavage enzyme [4]; 7 μM apoE4
  inhibition of apoE cleavage enzyme activity: 89%

## Ala-Ala-Pro-Leu (AAPL; OTHER INFORMATION: synthetic peptide)
apoE cleavage enzyme [4]; [9]
  inhibition of apoE cleavage enzyme activity: 56%
apoE cleavage enzyme [5]
  inhibition of apoE cleavage: significant inhibition

## Aβ1-42: amyloid beta (Aβ) peptide 1-42
[6]
  inclusion-positive apoE3 expressing cells after treatment: 2.8±0.6%
[7]
  inclusion-positive apoE4 expressing cells after treatment: 6.7±1.5%
[8]
  amounts of the carboxyl-terminal truncated forms of both apoE3 and apoE4: significantly increased

## C[C@H]1CCC/C=C/[C@@H]2C[C@H](O)C[C@H]2[C@H](O)/C=C/C(=O)O1 [BfA, Brefeldin A]
[6]
  inclusion-positive apoE3 expressing cells after treatment: 3.2±1.1%
[7]
  inclusion-positive apoE4 expressing cells after treatment: 7.2±2.1%
